Data on six compounds can be found in patent US8318807B2 (Laurus Labs Private Limited, priority 2010, dated 2012).

A short description of data set [1]: Relative humidity stability over saturated salt solutions at ambient temperature, analysed by XRPD. The data set is classed as physicochemical. Particulars: for Dissociation by XRPD: 75, 94, or 98% RH after four weeks. Here is the method:
Relative humidity (RH) conditions were created at ambient temperatures using saturated salt solutions: NaCl ˜75%, KNO3 ˜94%, and K2SO4 ˜98%. Vials of each sample containing approximately 10 mg, were subjected to physical stability at ˜75% RH, ˜94% RH, and ˜98% RH for one day, three days, one week, and four weeks within a closed chamber. […] Upon completion of the duration allowed, the samples were immediately analyzed by XRPD.

Data set [2] is described as follows: Physical stability upon slurrying in water. The class given is physicochemical. Particulars: for Behaviour upon slurrying in water: three days. The source says: […]. […] […]. […]
For data set [3], the system named is cancer cell lines. Particulars: cancer cell lines in vitro; cited from earlier work.
The procedure of data set [4]:
Solubility and concentration measurements were performed using ultraviolet (UV) spectroscopy on a Spectramax Microplate Reader.
Appropriate dilutions with water were made as necessary to maintain absorbance readings within the standard curve. All experiments were repeated three times to evaluate the standard deviation, while particle size was not controlled for any of the experiments.

A short description of data set [5]: Powder dissolution of cocrystal 4 (attempted for cocrystal 3): slurry in water at ambient, UV at 315 nm. The data set is classed as physicochemical.
Data set [6] can be described thus: Physical stability at elevated temperature and/or relative humidity, analysed by XRPD. The data set is classed as physicochemical. As for the experimental part: Physical stability was evaluated at approximately 40° C., 60° C., 25° C./75% RH, 25° C./98% RH, and 40° C./75% RH and XRPD was used to detect dissociation or form conversion. Vials of each cocrystal were subjected to each condition for durations of two weeks, one month, and two months. Upon completion of the duration allowed, the samples were immediately analyzed by XRPD.

Data set [7] can be described thus: Attempted intrinsic dissolution in 900 mL water at ambient conditions. The data set is classed as physicochemical. Particulars: after 30 minutes. Here is the method: Intrinsic dissolution in 900 mL water at ambient conditions was also attempted. […] Therefore, a concentration vs. time and intrinsic dissolution rate value were unobtainable at these conditions.

Consider `Cn1c(=O)c2c(ncn2C)n(C)c1=O` [caffeine], for which the “Results (XRPD)” value is on record as “caffeine anhydrous” in data set [1] (75% RH, 1 week); “caffeine anhydrous” in data set [1] (75% RH, 4 weeks); “caffeine anhydrous” in data set [1] (75% RH, 1 day); “caffeine anhydrous” in data set [1] (75% RH, 3 days); “caffeine hydrate” in data set [1] (94% RH, 1 week (7 days)); “caffeine hydrate” in data set [1] (94% RH, 4 weeks). The “Results (XRPD)” value is recorded as “caffeine anhydrous” in data set [1] (94% RH, 1 day); “caffeine anhydrous/caffeine hydrate” in data set [1] (94% RH, 3 days); “caffeine hydrate” in data set [1] (98% RH, 1 week); “caffeine hydrate” in data set [1] (98% RH, 4 weeks); “caffeine hydrate” in data set [1] (98% RH, 1 day); “caffeine hydrate” in data set [1] (98% RH, 3 days). Further, the Conversion to hydrate result in data set [1] (75% RH, up to four weeks) is reported as “does not display signs of conversion”. Besides, the “Time of partial conversion to hydrate/dihydrate” value in data set [1] (94% RH) is “between one and three days”. In addition, the “Time of (full) conversion to hydrate/dihydrate” value in data set [1] (98% RH) is “less than one day”.

As for `COc1cc(/C=C/c2ccc(O)cc2)cc(OC)c1.Cn1c(=O)c2c(ncn2C)n(C)c1=O` [cocrystal 1 (Form I), pterostilbene:caffeine], the “Results (XRPD)” value in data set [2] (Table 19, slurry, 2 days) is “cocrystal 1 (Form I), no caffeine hydrate”; in data set [1] (75% RH, 1 week), “cocrystal 1 (Form I), no caffeine hydrate”; in data set [1] (75% RH, 1 week, then additional stress at 98% RH, 1 week) it was “cocrystal 1 (Form I), no caffeine hydrate”; in data set [1] (75% RH, 4 weeks), “cocrystal 1 (Form I), no caffeine hydrate”; in data set [1] (75% RH, 1 day) it was “cocrystal 1 (Form I), no caffeine hydrate”; in data set [1] (75% RH, 1 day, then additional stress at 98% RH, 1 day) it was “cocrystal 1 (Form I), no caffeine hydrate”. Further, the “Results (XRPD)” value in data set [1] (75% RH, 3 days) is given as “cocrystal 1 (Form I), no caffeine hydrate”; in data set [1] (94% RH, 1 week (7 days)) it was “cocrystal 1 (Form I), no caffeine hydrate”; in data set [1] (94% RH, 4 weeks), “cocrystal 1 (Form I), no caffeine hydrate”; in data set [1] (94% RH, 1 day), “cocrystal 1 (Form I), no caffeine hydrate”; in data set [1] (94% RH, 3 days) it was “cocrystal 1 (Form I), no caffeine hydrate”; in data set [1] (94% RH, 7 days, then additional stress at 98% RH, 4 weeks) it was “cocrystal 1 (Form I), no caffeine hydrate”. Moreover, the “Behaviour upon slurrying in water” value in data set [2] was “precipitation of pterostilbene”.

On to `COc1cc(/C=C/c2ccc(O)cc2)cc(OC)c1.Cn1c(=O)c2c(ncn2C)n(C)c1=O` [cocrystal 1, pterostilbene:caffeine], for which the “Dissociation by XRPD” value in data set [1] is recorded as “no dissociation”.

In the case of `COc1cc(/C=C/c2ccc(O)cc2)cc(OC)c1` [pterostilbene, trans-3,5-dimethoxy-4′-hydroxystilbene], the Cytotoxic activity result in data set [3] is reported as “cytotoxic activity”. The “Results (XRPD)” value in data set [1] (75% RH, 4 weeks) was “pterostilbene (Form I)”; in data set [1] (94% RH, 4 weeks), “pterostilbene (Form I)”; in data set [1] (98% RH, 4 weeks) it was “pterostilbene (Form I)”.

For “pterostilbene:carbamazepine [cocrystal 2]”, in data set [4], the “Solubility (±standard deviation)” value was found to be 8.5 ± 0.7 µg/mL. Further, the “Behaviour upon slurrying in water” value in data set [2] was “stable”. Moreover, the “Results (XRPD)” value in data set [1] (75% RH, 1 week) was “cocrystal 2, no carbamazepine dihydrate”; in data set [1] (75% RH, 4 weeks), “cocrystal 2, no carbamazepine dihydrate”; in data set [1] (75% RH, 1 day), “cocrystal 2, no carbamazepine dihydrate”; in data set [1] (75% RH, 3 days) it was “cocrystal 2, no carbamazepine dihydrate”; in data set [1] (94% RH, 1 week (7 days)) it was “cocrystal 2, no carbamazepine dihydrate”; in data set [1] (94% RH, 4 weeks), “cocrystal 2, no carbamazepine dihydrate”. For the same compound, the “Results (XRPD)” value was “cocrystal 2, no carbamazepine dihydrate” in data set [1] (94% RH, 1 day); “cocrystal 2, no carbamazepine dihydrate” in data set [1] (94% RH, 3 days); “cocrystal 2, no carbamazepine dihydrate” in data set [1] (98% RH, 1 week); “cocrystal 2, no carbamazepine dihydrate” in data set [1] (98% RH, 4 weeks); “cocrystal 2, no carbamazepine dihydrate” in data set [1] (98% RH, 1 day); “cocrystal 2, no carbamazepine dihydrate” in data set [1] (98% RH, 3 days).

As to “pterostilbene:glutaric acid [cocrystal 3]”, in data set [5] (concluded from crystalline pterostilbene being the only product after slurrying in water), the “Solubility relative to pterostilbene” value is on record as “greater than the solubility of pterostilbene”. Besides, the “XRPD result after slurrying in water” value in data set [5] (water at ambient, after 5 minutes) was “crystalline pterostilbene”. Also, the “Results (by XRPD)” value in data set [6] (25° C./75% RH, 2 weeks) is listed as “cocrystal 3”; in data set [6] (25° C./75% RH, 4 weeks), “cocrystal 3”; in data set [6] (25° C./75% RH, 8 weeks), “cocrystal 3”; in data set [6] (25° C./98% RH, 2 weeks), “cocrystal 3”; in data set [6] (25° C./98% RH, 4 weeks), “cocrystal 3”; in data set [6] (25° C./98% RH, 8 weeks), “cocrystal 3”. The “Results (by XRPD)” value was “cocrystal 3” in data set [6] (40° C., 2 weeks); “cocrystal 3” in data set [6] (40° C., 4 weeks); “cocrystal 3” in data set [6] (40° C., 8 weeks); “cocrystal 3” in data set [6] (40° C./75% RH, 2 weeks); “cocrystal 3” in data set [6] (40° C./75% RH, 4 weeks); “cocrystal 3” in data set [6] (40° C./75% RH, 8 weeks). For the same compound, the “Results (by XRPD)” value is “cocrystal 3” in data set [6] (60° C., 2 weeks); “cocrystal 3” in data set [6] (60° C., 4 weeks); “cocrystal 3” in data set [6] (60° C., 8 weeks). Further, the “XRPD result in intrinsic dissolution” value in data set [7] was “crystalline pterostilbene”. In addition, the “Dissociation by XRPD” value in data set [1] is reported as “no dissociation”.
